Test results: patent publication US9845322B2 (Hoffmann-La Roche Inc., priority 2016, dated 2017)
Read-outs that look alike come from different tables or passages of the source.

Test system: HBsAg secretion in HepG2.2.15 cells
Assay: HBsAg assay (chemiluminescence immunoassay of secreted HBsAg in culture supernatant)
Type: cell-based, HBV
Procedure: HepG2.2.15 cells (Acs et al. Proc Natl Acad Sci USA, 84, (1987), 4641-4), a constitutively HBV-expressing cell line were cultured in DMEM+Glutamax-I medium (Invitrogen, Carlsbad, Calif., USA), supplemented with 10% fetal bovine serum (Invitrogen) and G418 (Invitrogen) at a final concentration of 200 mg/L and maintained in 5% CO2 at 37° C.
HepG2.2.15 cells were seeded in duplicate into white, 96-well plates at 1.5×10^4 cells/well. The cells were treated with a three-fold serial dilution series of the compounds in DMSO. The final DMSO concentration in all wells was 1% and DMSO was used as no drug control.
The HBsAg chemiluminescence immunoassay (CLIA) kit (Autobio Diagnostics Co., Zhengzhou, China, Catalog number: CL0310-2) was used to measure the levels of secreted HBV antigens semi-quantitatively. For the detection 50 μL/well culture supernatant was used and HBsAg was quantified using HBsAg chemiluminescence immunoassay (CLIA) kit (Autobio Diagnostics Co., Zhengzhou, China, Catalog number: CL0310-2), 50 μL of the supernatant was transferred to the CLIA assay plate and 50 μL of enzyme conjugate reagent was added into each well. The plates were sealed and gently agitated for 1 hour at room temperature. The supernatant-enzyme-mixture was discarded and wells were washed 6 times with 300 μL of PBS. The residual liquid was removed by plating the CLIA plate […] on absorbent tissue paper. 25 μL of substrates A and B were added to each well. Luminance was measured using a luminometer (Mithras LB 940 Multimode Microplate Reader) after 10 minutes incubation. Dose-response curves were generated and the IC50 value was extrapolated by using the E-WorkBook Suite (ID Business Solutions Ltd., Guildford, UK). The IC50 was defined as the compound concentration (or conditioned media log dilution) at which HBsAg secretion was reduced by 50% compared to the no drug control.
The compounds according to formula I were tested for their capacity to inhibit HBsAg as described herein.

[1] = HepG2.2.15 cells, concentration at which HBsAg secretion was reduced by 50% compared to the no drug control, read-out: IC50 (HBsAg assay)
[2] = Hepatitis B virus, HepG2.2.15, HepG2.2.15 cells, concentration at which HBsAg secretion was reduced by 50% compared to the no drug control, read-out: IC50 (HBsAg assay)

SMILES	IC50 [2] [µM]	other results
COCCOc1cc(N2CCc3nc(-c4ccccn4)ncc3C2C)cc(F)c1F (stereo not drawn) [Example 19, 6-[3,4-difluoro-5-(2-methoxyethoxy)phenyl]-5-methyl-2-(2-pyridyl)-7,8-dihydro-5H-pyrido[4,3-d]pyrimidine]	–	IC50 [1]: 0.042 µM
COc1cc(N2CCc3nc(-c4ncccn4)ncc3C2C)cc(F)c1C#N (stereo not drawn) [Example 22, 2-fluoro-6-methoxy-4-(5-methyl-2-pyrimidin-2-yl-7,8-dihydro-5H-pyrido[4,3-d]pyrimidin-6-yl)benzonitrile]	–	IC50 (Hepatitis B virus, HepG2.2.15, read-out: IC50 (HBsAg assay)): 0.027 µM
CC1c2cnc(-c3ccccn3)nc2CCN1c1ccc(S(C)(=O)=O)cc1 (stereo not drawn) [Example 23, 5-methyl-6-(4-methylsulfonylphenyl)-2-(2-pyridyl)-7,8-dihydro-5H-pyrido[4,3-d]pyrimidine]	1.49	–
CC1c2cnc(-c3ccccn3)nc2CCN1c1cc(F)c(F)c(OCCCCO)c1 (stereo not drawn) [Example 24, 4-[2,3-difluoro-5-[5-methyl-2-(2-pyridyl)-7,8-dihydro-5H-pyrido[4,3-d]pyrimidin-6-yl]phenoxy]butan-1-ol]	0.029	–
CC1c2cnc(-c3ccccn3)nc2CCN1c1cc(F)c(F)c(OCCCCCO)c1 (stereo not drawn) [Example 25, 5-[2,3-difluoro-5-[5-methyl-2-(2-pyridyl)-7,8-dihydro-5H-pyrido[4,3-d]pyrimidin-6-yl]phenoxy]pentan-1-ol]	0.033	–
CC1c2cnc(-c3ccccn3)nc2CCN1c1cc(F)c(F)c(OCCS(C)(=O)=O)c1 (stereo not drawn) [Example 26, 6-[3,4-difluoro-5-(2-methylsulfonylethoxy)phenyl]-5-methyl-2-(2-pyridyl)-7,8-dihydro-5H-pyrido[4,3-d]pyrimidine]	0.078	–
COC(=O)COc1cc(N2CCc3nc(-c4ccccn4)ncc3C2C)cc(F)c1F (stereo not drawn) [Example 27, methyl 2-[2,3-difluoro-5-[5-methyl-2-(2-pyridyl)-7,8-dihydro-5H-pyrido[4,3-d]pyrimidin-6-yl]phenoxy]acetate]	3.43	–
CC1c2cnc(-c3ccccn3)nc2CCN1c1cc(F)c(F)c(OCC(=O)O)c1 (stereo not drawn) [Example 28, 2-[2,3-difluoro-5-[5-methyl-2-(2-pyridyl)-7,8-dihydro-5H-pyrido[4,3-d]pyrimidin-6-yl]phenoxy]acetic acid]	3.08	–
CC1c2cnc(-c3ccccn3)nc2CCN1c1cc(F)c(F)c(OCC(N)=O)c1 (stereo not drawn) [Example 29, 2-[2,3-difluoro-5-[5-methyl-2-(2-pyridyl)-7,8-dihydro-5H-pyrido[4,3-d]pyrimidin-6-yl]phenoxy]acetamide]	0.05	–
CC1c2cnc(-c3ccccn3)nc2CCN1c1cc(F)c(F)c(OCC(=O)N(C)C)c1 (stereo not drawn) [Example 30, 2-[2,3-difluoro-5-[5-methyl-2-(2-pyridyl)-7,8-dihydro-5H-pyrido[4,3-d]pyrimidin-6-yl]phenoxy]-N,N-dimethyl-acetamide]	0.096	–
CC1c2cnc(-c3ccccn3)nc2CCN1c1cc(F)c(F)c(OCC(=O)N2CCCC2)c1 (stereo not drawn) [Example 31, 2-[2,3-difluoro-5-[5-methyl-2-(2-pyridyl)-7,8-dihydro-5H-pyrido[4,3-d]pyrimidin-6-yl]phenoxy]-1-pyrrolidin-1-yl-ethanone]	0.156	–
CC1c2cnc(-c3ccccn3)nc2CCN1c1cc(F)c(F)c(OCCCN2CCOCC2)c1 (stereo not drawn) [Example 32, 4-[3-[2,3-difluoro-5-[5-methyl-2-(2-pyridyl)-7,8-dihydro-5H-pyrido[4,3-d]pyrimidin-6-yl]phenoxy]propyl]morpholine]	0.074	–
CC1c2cnc(-c3ccccn3)nc2CCN1c1cc(F)c(F)c(OCCCS(C)(=O)=O)c1 (stereo not drawn) [Example 33, 6-[3,4-difluoro-5-(3-methylsulfonylpropoxy)phenyl]-5-methyl-2-(2-pyridyl)-7,8-dihydro-5H-pyrido[4,3-d]pyrimidine]	0.048	–
CC1c2cnc(-c3ccccn3)nc2CCN1c1cc(F)c(F)c(OCCCN)c1 (stereo not drawn) [Example 34, 3-[2,3-difluoro-5-[5-methyl-2-(2-pyridyl)-7,8-dihydro-5H-pyrido[4,3-d]pyrimidin-6-yl]phenoxy]propan-1-amine]	1.71	–
CC1c2cnc(-c3ccccn3)nc2CCN1c1cc(F)c(F)c(OCCCNS(C)(=O)=O)c1 (stereo not drawn) [Example 35, N-[3-[2,3-difluoro-5-[5-methyl-2-(2-pyridyl)-7,8-dihydro-5H-pyrido[4,3-d]pyrimidin-6-yl]phenoxy]propyl]methanesulfonamide]	0.046	–
CCOC(=O)CC1c2cnc(-c3ccccn3)nc2CCN1c1cc(F)c(F)c(OC)c1 (stereo not drawn) [Example 36, ethyl 2-[6-(3,4-difluoro-5-methoxy-phenyl)-2-(2-pyridyl)-7,8-dihydro-5H-pyrido[4,3-d]pyrimidin-5-yl]acetate]	39.8	–
COc1cc(N2CCc3nc(-c4ccccn4)ncc3C2CC(=O)O)cc(F)c1F (stereo not drawn) [Example 37, 2-[6-(3,4-difluoro-5-methoxy-phenyl)-2-(2-pyridyl)-7,8-dihydro-5H-pyrido[4,3-d]pyrimidin-5-yl]acetic acid]	4.86	–
COc1cc(N2CCc3nc(-c4ccccn4)ncc3C2CCO)cc(F)c1F (stereo not drawn) [Example 38, 2-[6-(3,4-difluoro-5-methoxy-phenyl)-2-(2-pyridyl)-7,8-dihydro-5H-pyrido[4,3-d]pyrimidin-5-yl]ethanol]	3.36	–
COc1cc(N2CCc3nc(-c4ccccn4)ncc3C2C[N+](=O)[O-])cc(F)c1F (stereo not drawn) [Example 39, 6-(3,4-difluoro-5-methoxy-phenyl)-5-(nitromethyl)-2-(2-pyridyl)-7,8-dihydro-5H-pyrido[4,3-d]pyrimidine]	1.34	–
COc1cc(N2CCc3nc(-c4ncccn4)ncc3C2C)cc(F)c1Cl (stereo not drawn) [Example 40, 6-(4-chloro-3-fluoro-5-methoxy-phenyl)-5-methyl-2-pyrimidin-2-yl-7,8-dihydro-5H-pyrido[4,3-d]pyrimidine]	4.86	–
COc1cc(N2CCc3nc(-c4ncccn4)ncc3C2C)cc(Cl)c1F (stereo not drawn) [Example 41, 6-(3-chloro-4-fluoro-5-methoxy-phenyl)-5-methyl-2-pyrimidin-2-yl-7,8-dihydro-5H-pyrido[4,3-d]pyrimidine]	–	IC50 [1]: 0.038 µM
CC1c2cnc(-c3ncccn3)nc2CCN1c1cc(O)c(F)c(F)c1 (stereo not drawn) [Example 44, 2,3-difluoro-5-(5-methyl-2-pyrimidin-2-yl-7,8-dihydro-5H-pyrido[4,3-d]pyrimidin-6-yl)phenol]	–	IC50 [1]: 0.494 µM
CC1c2cnc(-c3ncccn3)nc2CCN1c1cc(F)c(F)c(OCCCS(C)(=O)=O)c1 (stereo not drawn) [Example 47, 6-[3,4-difluoro-5-(3-methylsulfonylpropoxy)phenyl]-5-methyl-2-pyrimidin-2-yl-7,8-dihydro-5H-pyrido[4,3-d]pyrimidine]	–	IC50 [1]: 0.036 µM
CC1c2cnc(-c3ncccn3)nc2CCN1c1cc(F)c(F)c(OCCCC(=O)O)c1 (stereo not drawn) [Example 50, 4-[2,3-difluoro-5-(5-methyl-2-pyrimidin-2-yl-7,8-dihydro-5H-pyrido[4,3-d]pyrimidin-6-yl)phenoxy]butanoic acid]	1.13	–
CC1c2cnc(-c3ncccn3)nc2CCN1c1cc(F)c(F)c(OCCC(=O)O)c1 (stereo not drawn) [Example 51, 3-[2,3-difluoro-5-(5-methyl-2-pyrimidin-2-yl-7,8-dihydro-5H-pyrido[4,3-d]pyrimidin-6-yl)phenoxy]propanoic acid]	2.67	–
CC1c2cnc(-c3ncccn3)nc2CCN1c1cc(F)c(F)c(OCCCC(N)=O)c1 (stereo not drawn) [Example 52, 4-[2,3-difluoro-5-(5-methyl-2-pyrimidin-2-yl-7,8-dihydro-5H-pyrido[4,3-d]pyrimidin-6-yl)phenoxy]butanamide]	0.11	–
CNC(=O)CCCOc1cc(N2CCc3nc(-c4ncccn4)ncc3C2C)cc(F)c1F (stereo not drawn) [Example 53, 4-[2,3-difluoro-5-(5-methyl-2-pyrimidin-2-yl-7,8-dihydro-5H-pyrido[4,3-d]pyrimidin-6-yl)phenoxy]-N-methyl-butanamide]	0.103	–
CC1c2cnc(-c3ncccn3)nc2CCN1c1cc(F)c(F)c(OCCCCCCCCNC(=O)OC(C)(C)C)c1 (stereo not drawn) [Example 54, tert-butyl N-[8-[2,3-difluoro-5-(5-methyl-2-pyrimidin-2-yl-7,8-dihydro-5H-pyrido[4,3-d]pyrimidin-6-yl)phenoxy]octyl]carbamate]	0.146	–
CC1c2cnc(-c3ncccn3)nc2CCN1c1cc(F)c(F)c(OCCCCCCCCN)c1 (stereo not drawn) [Example 55, 8-[2,3-difluoro-5-(5-methyl-2-pyrimidin-2-yl-7,8-dihydro-5H-pyrido[4,3-d]pyrimidin-6-yl)phenoxy]octan-1-amine]	0.113	–
CC1c2cnc(-c3ncccn3)nc2CCN1c1cc(F)c(F)c(OCCCCCNC(=O)OC(C)(C)C)c1 (stereo not drawn) [Example 56, tert-butyl N-[5-[2,3-difluoro-5-(5-methyl-2-pyrimidin-2-yl-7,8-dihydro-5H-pyrido[4,3-d]pyrimidin-6-yl)phenoxy]pentyl]carbamate]	0.055	–
